Consider 91 molecules from PubChem BioAssay AID1421 (Emory University Molecular Libraries Screening Center, 2008).

Values joined by “and” are separate entries in the source; they are usually repeats but may differ in a detail not shown here. Equal entries are not always repeated. Active and inactive are the calls of the source. The rule behind the calls is not given here.

Sequence of Prostaglandin E2 receptor EP2 subtype (Homo sapiens) (P43116 whole entry, looked up): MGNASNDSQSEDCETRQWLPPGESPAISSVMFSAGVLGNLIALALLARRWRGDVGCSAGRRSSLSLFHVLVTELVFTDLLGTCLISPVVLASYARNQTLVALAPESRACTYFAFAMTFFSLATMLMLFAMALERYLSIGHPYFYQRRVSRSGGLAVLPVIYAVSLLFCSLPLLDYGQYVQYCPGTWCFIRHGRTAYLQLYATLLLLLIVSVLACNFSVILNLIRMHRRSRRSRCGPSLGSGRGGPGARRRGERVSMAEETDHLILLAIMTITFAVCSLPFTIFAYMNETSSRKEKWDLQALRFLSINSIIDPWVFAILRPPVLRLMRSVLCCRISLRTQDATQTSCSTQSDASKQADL

The first assay has as its target Prostaglandin E2 receptor EP2 subtype (Homo sapiens) (UniProt P43116). Briefly: compounds shifting PGE2 potency at EP2 – cell-based, human EP2, PGE2 EC50 shift, dose response (AID 1421). To be noted: EP2-expressing cells, PGE2 EC50 shift by compound.
As for `COc1cc2c(cc1OC)-c1cc(N3CCCc4ccccc43)nc(=O)n1CC2`, the result was active.
Still for that read-out and setting: the value for `CCC(C)N(C)C(=O)c1cc2ccccc2c(-c2ccccc2Cl)n1` (stereo not given) was “active”; that for `CC(C)OC(=O)CSc1nc(Cc2ccccc2)nc2ccccc12` was “active”.
On the same count and under the same terms, as for `Cc1ccc(C)c(NC(=S)N(Cc2ccco2)C(C)c2cccs2)c1` (stereo not given), the entry is “active”; as for `CCc1nc(N2CCCCC2)c2oc3ccccc3c2n1`, “active”; as for `Cc1sc(NC(=O)c2ccccc2F)c(CN2CCCCC2C)c1C` (stereo not given), “active”.
On to `CC(C)CCn1c(=O)c2ccccc2c2ccccc2c1=O`, for which the result was active.
Turning to `CC1CCCC(C)N1C(=O)c1ccccc1Nc1ccc(SC(F)F)cc1` (stereo not given), the outcome was active.
Consider `O=c1[nH]c2ccc(Cl)cc2c(-c2ccccc2)c1N1CCOCC1`, for which the outcome was active.

The same assay, now with this note: EP2-expressing cells, PGE2 EC50 shift by compound; measured here: PGE2 EC50 at 6.7 uM compound.
In the case of `CC(Sc1nc2ccccc2n1C)C(=O)NC(c1ccccc1)c1ccccc1` (stereo not given), the PGE2 EC50 with compound is 1.24 nM.
The same measure, in the same setting: as for `Cc1cc(C)n(-c2cc(-c3ccccc3)nc(C)n2)n1`, the figure is 2.6 nM.
Regarding `Nc1n[nH]c2c1C1(CCCCC1)Cc1ccccc1-2`, the PGE2 EC50 with compound worked out at 2.69 nM.
Take `Cc1cc(C)nc(SCc2nnc(SCC#N)n2-c2cccc(Cl)c2)n1`: the PGE2 EC50 with compound amounted to 2.76 nM.
Turning to `COC(=O)c1c(-c2ccc(F)cc2)csc1NC(=O)C1CCCO1` (stereo not given), the PGE2 EC50 with compound was 2.48 nM.
Still for that read-out and setting: the value for `CC1(C)OC(c2ccccc2)=C/C(=C/C=Nc2ccccc2)O1` was 0.99 nM; that for `Cc1ccc(O)c(N=Cc2cc(Cc3ccccc3)cc([N+](=O)[O-])c2O)c1` was 1.07 nM.
With `COc1ccc2c(COC(=O)c3n[nH]c4ccccc34)cc(=O)oc2c1`, the PGE2 EC50 with compound stood at 1.31 nM.
For `S=c1[nH]nc(-c2ccc3ccccc3n2)n1Cc1ccccc1`, the PGE2 EC50 with compound amounted to 0.91 nM.
`O=C(Cc1c(F)cccc1Cl)Nc1ccccc1N1CCCCC1`: the PGE2 EC50 with compound was 2.55 nM.
`CC1CCc2cc(F)cc3c(O)c(C(=O)NCc4ccco4)c(=O)n1c23` (stereo not given): the PGE2 EC50 with compound was 0.56 nM.
Regarding `O=C(c1cccs1)N1N=C(c2ccccc2)CC1c1ccc(O)cc1` (stereo not given), the PGE2 EC50 with compound turned out to be 0.83 nM.
Turning to `Oc1ccccc1-c1nc(N2CCCC2)c2ccccc2n1`, the PGE2 EC50 with compound was determined as 0.64 nM.
Regarding `COc1cc2c(cc1OC)-c1cc(N3CCCc4ccccc43)nc(=O)n1CC2`, the PGE2 EC50 with compound came to 1.98 nM.
Turning to `c1ccc(-c2noc(CN3CCN(C(c4ccccc4)c4ccccc4)CC3)n2)cc1`, the PGE2 EC50 with compound stood at 0.73 nM.
Turning to `CC(OC(=O)c1oc2ccccc2c1COc1ccccc1)C(=O)NC(N)=O` (stereo not given), the PGE2 EC50 with compound is 2.83 nM.
Still for that read-out and setting: as for `CCOc1cc(/C=N/NC(N)=O)ccc1OC(=O)c1ccc(C)cc1`, the figure is 1.52 nM; as for `C/C(=N\N(Cc1ccccc1)c1ccccc1)c1cccnc1`, 1.38 nM; as for `COC(=O)c1ccccc1NC(=O)c1cnn2c(C(F)F)cc(C3CC3)nc12`, 1.17 nM.
The same measure, in the same setting: as for `O=c1[nH]c(SCc2cccc(Cl)c2)nc2c1CCCC2`, the figure is 0.77 nM.
On to `O=S(=O)(c1ccc(F)c(Cl)c1)N1CCCC1`, for which the PGE2 EC50 with compound came to 1.02 nM.
Turning to `COC(=O)c1c(NC(=O)Cc2cccs2)sc2c1CCCC2`, the PGE2 EC50 with compound was determined as 1.02 nM.
Consider `CCOC(=O)c1sc2nc(C)nc(N3CCN(c4ncccn4)CC3)c2c1C`, for which the PGE2 EC50 with compound worked out at 0.62 nM.
Still for that read-out and setting: as for `COc1ccc(Oc2cc(C(F)(F)F)nc(N(C)C)n2)cc1`, the figure is 0.63 nM; as for `CN(/N=C\c1ccc(O)c(O)c1)c1nc(-c2ccccc2)cc(-c2ccccc2)n1`, 1.22 nM.
Still for that read-out and setting: as for `CCN1C(=O)/C(=C2/C=CC=CN2C)SC1=S`, the figure is 1.64 nM; as for `O=C(NCc1ccco1)C(c1cccs1)N(C(=O)Cc1cccs1)c1ccccc1` (stereo not given), 1.49 nM; as for `CCOC(=O)c1cc2sc(C)cc2n1C(C)C(=O)OCC` (stereo not given), 0.84 nM.
For the molecule `O=c1[nH]c2ccc(Br)cc2c(-c2ccccc2)c1N1CCOCC1`, the PGE2 EC50 with compound was determined as 1.07 nM.
Take `CCCN(CCC)C(C)C(=O)NCC1(c2ccccc2)CCCC1` (stereo not given): the PGE2 EC50 with compound was 0.94 nM.
`CCOC(=O)c1c(CC(C)C)csc1N`: the PGE2 EC50 with compound is 1.47 nM.
`CC1=C(C(=O)OCc2ccccc2)C(c2ccc(Cl)cc2Cl)NC(=O)N1CCCCCC(=O)O` (stereo not given): the PGE2 EC50 with compound is 1.23 nM.
On to `O=C(Cc1ccc(F)cc1)Nc1ccccc1Sc1ccccc1`, for which the PGE2 EC50 with compound was determined as 0.7 nM.
Still for that read-out and setting: the value for `CCC(C)N(C)C(=O)c1cc2ccccc2c(-c2ccccc2Cl)n1` (stereo not given) was 0.93 nM and 1.18 nM; that for `O=c1cc(N2CCCCC2)c(-c2ccccc2)nn1Cc1ccccc1` was 1.25 nM; that for `Cc1ccccc1NC(=O)CSc1nc(COc2ccccc2)nc2ccccc12` was 1.24 nM.
Turning to `CCOP(=O)(OCC)c1nc(-c2cccc3ccccc23)oc1N1CCCCC1`, the PGE2 EC50 with compound was 1.11 nM.
On to `CC(C)OC(=O)CSc1nc(Cc2ccccc2)nc2ccccc12`, for which the PGE2 EC50 with compound worked out at 1.14 nM.
As for `c1ccc(-c2cc(-c3ccncc3)nc3ccc4ccccc4c23)cc1`, the PGE2 EC50 with compound was 0.69 nM.
Consider `Cc1cc(C)c2nc(N3CCCN(C(=O)c4ccco4)CC3)c(C#N)cc2c1`, for which the PGE2 EC50 with compound amounted to 0.64 nM.
The same measure, in the same setting: the value for `CCOC(=O)Nc1sc2c(c1C(=O)OCC)CCC2` was 0.84 nM; that for `Cc1ccc(C)c(NC(=S)N(Cc2ccco2)C(C)c2cccs2)c1` (stereo not given) was 0.7 nM.
On to `Cc1cc(C(=O)Nc2cccc(/C=C/C(=O)O)c2)c(C)o1`, for which the PGE2 EC50 with compound was 0.36 nM.
Consider `C=CCNC(=S)NNc1nc(Nc2ccccc2)nc(N2CCCCC2)n1`, for which the PGE2 EC50 with compound stood at 1.42 nM.
As to `CC(C)n1cc(-c2ccc(Cl)cc2)cc(C#N)c1=O`, the PGE2 EC50 with compound worked out at 1.21 nM.
On the same count and under the same terms, as for `CCOC(=O)c1ccccc1NC(=O)CSc1ncc(C(=O)OCC)c(N)n1`, the figure is 0.96 nM; as for `CCc1nc(N2CCCCC2)c2oc3ccccc3c2n1`, 0.8 nM; as for `C/C(CCC(C)C)=N\NC(=S)NCc1ccccc1`, 0.88 nM.
As to `FC(F)(F)c1cc(CO[C@H]2CCCN[C@H]2c2ccccc2)cc(C(F)(F)F)c1`, the PGE2 EC50 with compound was 1.59 nM.
As to `Cc1sc(NC(=O)c2ccccc2F)c(CN2CCCCC2C)c1C` (stereo not given), the PGE2 EC50 with compound turned out to be 0.88 nM.
For `CC(C)CCn1c(=O)c2ccccc2c2ccccc2c1=O`, the PGE2 EC50 with compound worked out at 1.07 nM.
With `S=c1[nH]nc(-c2ccc(Br)o2)n1Cc1ccccc1`, the PGE2 EC50 with compound is 1.34 nM.
Turning to `NS(=O)(=O)c1ccc(NCc2cnc3ccccc3n2)cc1`, the PGE2 EC50 with compound was 0.64 nM.
Turning to `O=C(O)c1oc(C(=O)O)c(C(=O)O)c1C(=O)O`, the PGE2 EC50 with compound stood at 1.51 nM.
Turning to `CCCCC(=O)C1CCN(Cc2ccccc2)CC1`, the PGE2 EC50 with compound is 0.89 nM.
On the same count and under the same terms, the value for `CCOP(=O)(OCC)c1nc(-c2ccc(C)cc2)oc1NCc1ccccc1` was 0.83 nM; that for `C=C(C)Cn1c(C)cc(C)c(S(=O)(=O)c2ccc(C)cc2)c1=O` was 1.04 nM; that for `Cc1cc(Nc2ccc(Br)cc2)n2nc(C)nc2n1` was 1.06 nM.
Regarding `CC1CCCC(C)N1C(=O)c1ccccc1Nc1ccc(SC(F)F)cc1` (stereo not given), the PGE2 EC50 with compound was determined as 1.05 nM.
As for `CCOC(=O)c1c(NC(=O)CSc2nnc(N)s2)sc(C)c1-c1ccc(C)cc1`, the PGE2 EC50 with compound is 0.48 nM.
For `CN(Cc1cc(Br)cc(Br)c1O)Cc1c(O)ccc2ccccc12`, the PGE2 EC50 with compound is 1.22 nM.
As for `COC(=O)c1sc2nc(-c3ccccc3)c3c(c2c1N)CCCC3`, the PGE2 EC50 with compound was determined as 0.33 nM.
`Cc1cccc(-c2csc(N)c2C(=O)OC(C)C)c1`: the PGE2 EC50 with compound worked out at 0.97 nM.
On the same count and under the same terms, as for `Cc1ccc(S(=O)(=O)NCC(=O)OCN2C(=O)c3ccccc3C2=O)cc1`, the figure is 1.01 nM.
For the molecule `COc1cc(O)c2c(=O)cc(C)oc2c1CC=C(C)C`, the PGE2 EC50 with compound is 2.64 nM.
On the same count and under the same terms, as for `CC(=O)N1c2ccccc2C(C)(c2ccccc2)CC1(C)C` (stereo not given), the figure is 2.45 nM; as for `CCCn1c(SCC(=O)Nc2sc(C)c(C)c2C(=O)OCC)nc2c1c(=O)n(C)c(=O)n2C`, 1.35 nM; as for `CC1(C)CC2CC(C)(CN2c2ncnc3ccc(Br)cc23)C1` (stereo not given), 1.52 nM.
For `COC(=O)c1c(NC(=S)NN2CCOCC2)sc2c1CCCC2`, the PGE2 EC50 with compound was found to be 0.9 nM.
The same measure, in the same setting: the value for `COC(=O)c1c(NC(=O)c2cccs2)sc2c1CCC(C)C2` (stereo not given) was 0.96 nM; that for `CCOC(=O)c1c(NC(=O)CSc2nnc(C)s2)sc2c1CCC(C)C2` (stereo not given) was 0.95 nM.
As for `CCOc1ccc(Cc2n[nH]c(=S)n2Cc2ccccc2)cc1`, the PGE2 EC50 with compound turned out to be 0.69 nM.
As for `COc1ccccc1-c1nnc(SCC(=O)c2ccc(C3CCCCC3)cc2)n1Cc1ccco1`, the PGE2 EC50 with compound was 0.71 nM.
The same measure, in the same setting: as for `Clc1ccc(Cn2c(/C=C/c3ccco3)nc3ccccc32)cc1`, the figure is 1.38 nM.
On to `C=C[C@@](C)(O)CCC1C(=C)C[C@H](O)C2C(C)(C)CCCC12C` (stereo not given in full), for which the PGE2 EC50 with compound was 2.91 nM.
The same measure, in the same setting: the value for `COc1ccc(CN2C(=O)CN=C2Nc2cc(C)ccc2C)cc1` was 1.04 nM.
Consider `c1ccc(CCc2cccnc2)nc1`, for which the PGE2 EC50 with compound was 1.62 nM.
For the molecule `Cc1noc(C)c1CSc1ncnc2sc(C)c(C)c12`, the PGE2 EC50 with compound came to 1.38 nM.
As to `N#Cc1c(-c2ccco2)nc(SCc2ccc(F)cc2)[nH]c1=O`, the PGE2 EC50 with compound was determined as 2.86 nM.
For the molecule `CCOC(=O)c1ccc(CN(Cc2ccc(C)cc2)S(=O)(=O)c2cccc([N+](=O)[O-])c2)cc1`, the PGE2 EC50 with compound stood at 1.62 nM.
Take `Cc1cc(C)c(S(=O)(=O)c2ccccc2)c(OC(=O)c2cc(F)c(F)cc2Cl)n1`: the PGE2 EC50 with compound turned out to be 0.91 nM.
Regarding `OCCCNc1nc(-c2ccc(Br)cc2)nnc1-c1ccc(Cl)cc1`, the PGE2 EC50 with compound worked out at 1.42 nM.
Turning to `O=c1[nH]c2ccc(Cl)cc2c(-c2ccccc2)c1N1CCOCC1`, the PGE2 EC50 with compound was 1.13 nM.
As to `COc1ccc(C(=O)NCCCN2CCOCC2)cc1OC`, the PGE2 EC50 with compound amounted to 0.99 nM.
For the molecule `COc1ccc(-n2c(-c3cccc(OC)c3)nc(=S)c3c2CCCC3)cc1`, the PGE2 EC50 with compound came to 2.89 nM.
As for `O=C(c1ccc(Br)o1)N(Cc1ccccc1)Cc1ccccc1`, the PGE2 EC50 with compound was found to be 0.77 nM.
Still for that read-out and setting: the value for `CCOC(=O)c1c(-c2cccs2)csc1NC(=O)CN1CCOCC1` was 0.99 nM; that for `C=CCOc1ccccc1CNc1ccccc1C` was 1.42 nM; that for `CC(=O)OC[C@@]1(O)C[C@@]23CCC4c5ccoc5CC[C@]4(C)C2CC[C@@H]1C3` (stereo not given in full) was 0.85 nM.
Turning to `[N-]=[N+]=Nc1ccc(C(=O)CSC[C@H](NC(=O)CC[C@H](N)C(=O)O)C(=O)NCC(=O)O)cc1`, the PGE2 EC50 with compound stood at 0.8 nM.
For the molecule `COc1cccc(OCC(=O)Nc2ccccc2-c2ccccc2)c1`, the PGE2 EC50 with compound came to 1.17 nM.
